Test results as given in patent publication US12404243B2, “Inhibitors of the Wnt/beta-catenin pathway” (The Regents of the University of California, priority 2018, dated 2025).

Experiments:
[1] = test system: Wnt/β-catenin-mediated transcription; assay: TCF-luciferase activity assay in 293T/Top/β-cat* cells; type: cell-based; conditions: summary of FIGS. 5A, B (293T/Top cells + LiCl) and 6A-C (293T/Top/β-cat* cells)
Description: 293T cells were maintained in DMEM medium containing 10% FBS and antibiotics (penicillin and streptomycin) at 37° C. in 5% CO2. Cells were stably infected with lentiviruses expressing the TopFlash reporter (293T/Top cells). The β-catenin mutant (β-cat*, the constitutively active mutant) construct was prepared using the retroviral expression vector by standard PCR. For viral transduction, retrovirus was obtained by co-trasfection of pQCXIP-β-cat* with packaging plasmids into 293T cells following the manufacturer's instructions. 293T/Top stable cells were seeded in 10 cm dish and incubated overnight. The next day cells were treated with retroviral particles. After 12 hours, the medium was replaced with fresh medium. 2 days post virus infection, the cells were selected with puromycin for 5 days to generate the 293T/Top/β-cat* stable cell line.
293 T/Top/β-cat* cells were plated at 40%-50% confluences in 12-well plate for 8 hours and then treated with Wnt inhibitors overnight. The luciferase activity of total cell lysates was measured using Luciferase Assay System (Promega). The related TCF-luciferase activity was normalized against the protein concentration of each cell lysate sample.

SW480 tumor xenografts = assay: Mouse xenografts of SW480 cells; type: in vivo, nude mice
Description: 5×10^5 of SW480 cells were injected subcutaneously into the flank area of 6-8-week-old nude mice. Tumor volume was measured by using an electronic caliper and calculated with the formula length×width^2×0.5, every 2 days. 12 days after inoculation, tumor bearing mice were administered Wnt inhibitors (dissolved in 10% DMSO+20% Cremophor EL+70% normal saline) via intraperitoneal injection for 5 days per week for 10 days at 10 mg/kg. Animal body weights were measured before drug treatments and at the end of the experiments. At the end of the experiments, animals were euthanized with carbon dioxide, followed by cervical dislocation. The tumors were dissected and weighed on the digital balance. We housed mice in pathogen-free facilities under 12-h light and 12-h dark cycle. The animal protocol and experimental procedures were approved by the Division of Laboratory Animal Medicine of UCLA and were in accordance with the US National Institute of Health guidelines.

[2] = SW480 xenografts, 10 mg/kg, day 12 to 22 (FIG. 16A)

Question: With `CN(C)CCC(=O)N1C/C(=C\c2cccc(C(F)(F)F)c2)C(=O)/C(=C/c2cccc(C(F)(F)F)c2)C1` [JC018, 1-(3-(Dimethylamino)propanoyl)-3,5-bis((E)-3-(trifluoromethyl)benzylidene)piperidin-4-one] as the compound, how does the Wnt/β-catenin-mediated transcription [1] read?
Answer: significantly inhibited

Question: `CN(C)CCC(=O)N1C/C(=C\c2ccccn2)C(=O)/C(=C/c2ccccn2)C1` [JC021, (3E,5E)-1-(3-(Dimethylamino)propanoyl)-3,5-bis(pyridin-2-ylmethylene)piperidin-4-one] was tested. Which Wnt/β-catenin-mediated transcription [1] did it give?
Answer: significantly inhibited

Question: How did the Wnt/β-catenin-mediated transcription [1] turn out when `CN(C)CCC(=O)N1C/C(=C\c2ccc(C(F)(F)F)cc2)C(=O)/C(=C/c2ccc(C(F)(F)F)cc2)C1` [JC022, 1-(3-(Dimethylamino)propanoyl)-3,5-bis((E)-4-(trifluoromethyl)benzylidene)piperidin-4-one] was run?
Answer: significantly inhibited

Question: `CN(C)CCC(=O)N1C/C(=C\c2cc(Cl)cc(Cl)c2)C(=O)/C(=C/c2cc(Cl)cc(Cl)c2)C1` [JC028, 3,5-Bis((E)-3,5-dichlorobenzylidene)-1-(3-(dimethylamino)propanoyl)piperidin-4-one] was tested. Which Wnt/β-catenin-mediated transcription [1] did it give?
Answer: significantly inhibited

Question: For `CN(C)CCC(=O)N1C/C(=C\c2ccc(Cl)c(Cl)c2)C(=O)/C(=C/c2ccc(Cl)c(Cl)c2)C1` [JC032, 3,5-Bis((E)-3,4-dichlorobenzylidene)-1-(3-(dimethylamino)propanoyl)piperidin-4-one], which Wnt/β-catenin-mediated transcription [1] is on record?
Answer: significantly inhibited

Question: `O=C1/C(=C/c2ccc(F)c(F)c2)CN(C(=O)CCN2CCCCC2)C/C1=C\c1ccc(F)c(F)c1` [JC048, 3,5-Bis((E)-3,4-difluorobenzylidene)-1-(3-(piperidin-1-yl)propanoyl)piperidin-4-one] was tested. Which Wnt/β-catenin-mediated transcription [1] did it give?
Answer: significantly inhibited

Question: How did the Wnt/β-catenin-mediated transcription [1] turn out when `O=C1/C(=C/c2ccc(F)c(F)c2)CN(C(=O)CCC(=O)N2CCCC2)C/C1=C\c1ccc(F)c(F)c1` [JC072, 1-(3,5-Bis((E)-3,4-difluorobenzylidene)-4-oxopiperidin-1-yl)-4-(pyrrolidin-1-yl)butane-1,4-dione] was run?
Answer: significantly inhibited

Question: How did the tumor volume (SW480 tumor xenografts; SW480 xenografts, 10 mg/kg, day 12 to day 21 (FIG. 9A)) turn out when `O=C1/C(=C/c2ccc(F)c(F)c2)CN(C(=O)c2ccc(OCCN3CCCCC3)cc2)C/C1=C\c1ccc(F)c(F)c1` [JC082, 3,5-Bis((E)-3,4-difluorobenzylidene)-1-(4-(2-(piperidin-1-yl)ethoxy)benzoyl)piperidin-4-one] was run?
Answer: significantly reduce tumor volume

Question: And the “tumor sizes at the end of treatment” value (SW480 tumor xenografts; SW480 xenografts, 10 mg/kg, day 12 to day 21 (FIG. 9B))?
Answer: significantly reduced the size of the tumors recovered

Question: And the “tumor weights at the end of treatment” value (SW480 tumor xenografts; SW480 xenografts, 10 mg/kg, day 12 to day 21 (FIG. 9C))?
Answer: significantly reduce the weight of tumors recovered

Question: And the tumor growth (SW480 tumor xenografts; mouse xenograft studies of human colon cancer, summary of FIGS. 7A-D, 8A-C, 9A-C)?
Answer: significantly inhibited the tumor growth

Question: With `CCN(CC)CCS(=O)(=O)N1C/C(=C\c2ccc(F)c(F)c2)C(=O)/C(=C/c2ccc(F)c(F)c2)C1` [JC098, 1-((2-(Diethylamino)ethyl)sulfonyl)-3,5-bis((E)-3,4-difluorobenzylidene)piperidin-4-one] as the compound, how does the “actual tumor sizes at the end of treatment” value (“actual tumor sizes at the end” below) (SW480 tumor xenografts; SW480 xenografts, 10 mg/kg, day 12 to day 20 (FIG. 8B)) read?
Answer: reduced the size of tumors recovered

Question: How did the “actual tumor sizes at the end” value (SW480 tumor xenografts; [2]) turn out when `CN(C)CCNC(=O)C1C/C(=C\c2cc(Cl)cc(Cl)c2)C(=O)/C(=C/c2cc(Cl)cc(Cl)c2)C1` (stereo not shown) [JC137, 3,5-Bis((E)-3,5-dichlorobenzylidene)-N-(2-(dimethylamino)ethyl)-4-oxocyclohexane-1-carboxamide] was run?
Answer: reduced the size of tumors recovered

Question: `CN(C)CCOc1ccc(NC(=O)C2C/C(=C\c3cc(Cl)cc(Cl)c3)C(=O)/C(=C/c3cc(Cl)cc(Cl)c3)C2)cc1` (stereo not shown) [JC138, 3,5-Bis((E)-3,5-dichlorobenzylidene)-N-(4-(2-(dimethylamino)ethoxy)phenyl)-4-oxocyclohexane-1-carboxamide] was tested. Which “actual tumor sizes at the end” value (SW480 tumor xenografts; [2]) did it give?
Answer: reduced the size of tumors recovered

Question: And the “tumor weights at the end of treatment” value (SW480 tumor xenografts; SW480 xenografts, 10 mg/kg, day 12 to 22 (FIG. 16B))?
Answer: significantly reduced the weight of tumors recovered

Question: What about the tumor volumes (SW480 tumor xenografts; SW480 xenografts, 10 mg/kg, day 12 to 22 (FIG. 16C)) of the same compound?
Answer: significantly reduced tumor volumes
